# Results: patent US20250186592A1, “TETRAZINE CONJUGATES FOR IN VIVO TARGETED DELIVERY OF A PAYLOAD” (Tambo, Inc., priority 2021, published 2025)
# Square brackets hold non-standard residues; d marks the D form. Peptide text beside a SMILES is read from it. * marks the point of attachment. Dolaproine = CO[C@@H]([C@@H]1CCCN1)[C@@H](C)C(=O)O; Dil = CC[C@H](C)[C@H](NC)[C@@H](CC(=O)O)OC; X1 = C[C@@H](N*)[C@@H](O)c1ccccc1; NMeV = CN[C@H](C(=O)O)C(C)C
# Assays:
# [1] = LCMS analysis of drug release by tetrazines; conditions: tetrazine 20 μM, TCO-MMAE 10 μM in PBS
# Description: A solution of each tetrazine (20 μM final concentration) in PBS is mixed with TCO-MMAE (10 μM final concentration). The solution is mixed thoroughly and an aliquot removed at the appropriate time for analysis by LCMS.
# NCI-N87 xenograft = experiment: Efficacy study in subcutaneous NCI-N87 xenograft model in CB17 SCID mice; type: in vivo, mice (Mus musculus); conditions: for TGI: P<0.05 vs vehicle; for mean tumor size on day 35: vehicle 1009 mm^3
# Description: Methods: 110 CB17 SCID female mice (Mus musculus; age: 6-8 weeks; body weight: 18-22 g; Shanghai LingChang Biotech Co., LTD) were inoculated subcutaneously at right flank with NCI-N87 cells (3×10^6 cells was suspended in 0.2 mL mixture of 1640 with (1640: Matrigel=1:1) BD Matrigel for tumor development). After 7 days inoculation, 70 animals were divided into 8 groups with 10 animals in group 1, 2, 5, 6, 7 and 8, and with 5 animals in group 3 and 4 using stratified random grouping based on their body weight and tumor volume. The treatments were started from the mean tumor size reached to 158 mm^3 (106-221 mm^3) for these 70 mice. Group 1: Vehicle, i.v., QD×3×2 weeks. Group 2: MMAE, 0.25 mpk, i.v., QW×2 weeks. […] Group 4: Compound A, 20 mpk, i.v., QD×3×2 weeks. […] Group 7: SQL70, 100 μL, i.t.×1 dose+Compound A, 1.9 mpk, i.v., QD×5. Group 8: T-DM1, 3 mpk, i.v., QW×2 weeks. The tumor sizes and body weight were measured twice a week during the treatment. The dosing schedule was finished on day PG-D10. The entire study was terminated on PG-D37 and collected all the tumor samples for group 5 and 6, and 3 tumors/group for group 1 and 2.
# Experimental Methods and Procedures: Cell preparation and implantation: The NCI-N87 (Gastric carcinoma, ATCC® CRL-5822™, Lot No. 7686255) cells were maintained in vitro as a monolayer culture in RPMI-1640 medium supplemented with 10% heat inactivated fetal bovine serum, 100 U/mL penicillin and 100 μg/mL streptomycin at 37° C. in an atmosphere of 5% CO2 in air. The tumor cells were routinely sub-cultured per 5 days by trypsin-EDTA treatment. The cultured NCI-N87 cells were harvested, re-suspended in base medium at a density of 1.5×10^7 cells/mL with viability >90%. Each mouse was inoculated subcutaneously at the right flank with 3×10^6 in 0.2 mL mixture of 1640 with (1640: Matrigel=1:1) BD Matrigel for tumor development.
# Randomization and administration: The treatments were started from the mice were grouped based on their mean tumor size reached 158 mm^3 (106-221 mm^3) for group 1-8. Each group consisted of 10 or 5 mice. The test article was administrated to the mice according to the regimen as shown in the experimental design table (Table 4).
# Tumor Measurements and Endpoints: The major endpoint is to see if the tumor growth can be delayed or mice can be cured. […] The tumor sizes were then used for the calculations of both tumor growth inhibition (TGI) values.
# The T/C value (in percent) is an indication of antitumor effectiveness, T/C (%)=RTVTreatment/RTVControl×100% (RTVTreatment: the mean RTV of the treatment group; RTVControl: the mean RTV of the vehicle treated group). RTV (relative tumor volume)=TVDayN/TVDay0. TVDayN and TVDay0 is the tumor volume on day N and Day 0 respectively. T/C (%)≤42% is considered as significant antitumor activity and <10% is considered as highly significant antitumor activity by the United States National Cancer Institute criteria.
# Statistical Analysis: The tumor volume between different groups was analyzed by two-way repeated measures ANOVA followed by the Tukey's post hoc test. All data were analyzed using GraphPad Prism 6.0. P<0.05 is considered to be statistically significant.
# [2] = Group 4: Compound A 20 mpk i.v. QD×3×2 weeks, day 35
# [3] = Group 2: MMAE 0.25 mpk i.v. QW×2 weeks, day 35
Compound,% TCO-MMAE consumed (1 h) [1] [%],% MMAE released (24 h) [1] [%],further results
Cc1nnc(-c2ncccn2)nn1,100,29,–
Cc1nnc(-c2cn(C)cn2)nn1,74,40,–
Cc1nnc(-c2cocn2)nn1,42,62,–
Cc1nnc(-c2ccc(C(F)(F)F)c(CN)c2)nn1,100,46,–
Cc1nnc(-c2ccc(CN)c(C(F)(F)F)c2)nn1,100,51,–
Cc1nnc(-c2ccccn2)nn1,100,28,–
Cc1nnc(-n2cccn2)nn1,81,35,–
CC[C@H](C)[C@@H](C(CC(=O)N1CCC[C@H]1[C@H](OC)[C@@H](C)C(=O)N[C@H](C)[C@@H](O)c1ccccc1)OC)N(C)C(=O)[C@@H](NC(=O)[C@H](C(C)C)N(C)C(=O)O[C@H]1/C=C/CC[C@@](C)(C(=O)O)CC1)C(C)C (stereo partly drawn) [Compound A],–,–,"T/C (NCI-N87 xenograft; [2]): 62.12%; TGI (NCI-N87 xenograft; [2]): 41.74%; mean tumor size on day 35 (NCI-N87 xenograft; Group 4: Compound A 20 mpk i.v. QD×3×2 weeks, day 35 after grouping): 653 mm^3"
CC[C@H](C)[C@@H]([C@@H](CC(=O)N1CCC[C@H]1[C@H](OC)[C@@H](C)C(=O)N[C@H](C)[C@@H](O)c1ccccc1)OC)N(C)C(=O)[C@@H](NC(=O)[C@@H](NC)C(C)C)C(C)C [MMAE] (H-[NMeV]V[Dil][Dolaproine]-X1),–,–,"T/C (NCI-N87 xenograft; [3]): 57.50%; TGI (NCI-N87 xenograft; [3]): 49.68%; mean tumor size on day 35 (NCI-N87 xenograft; Group 2: MMAE 0.25 mpk i.v. QW×2 weeks, day 35 after grouping): 586 mm^3"
T-DM1,–,–,"mean tumor size on day 35 (NCI-N87 xenograft; Group 8: T-DM1 3 mpk i.v. QW×2 weeks, day 35): 873 mm^3"
